Patent US10385022B2, “3-amino-pyridines as GPBAR1 agonists” (HOFFMANN-LA ROCHE INC., priority 2011, dated 2019)
Where a name gives a salt, the structure may show the parent alone.

Target: human GPBAR1 receptor (Homo sapiens (Human), UniProt Q8TDU6)
Test: functional cAMP assay in CHO-dhfr(minus) cells expressing human GPBAR1 receptors
Assay type: cell-based
Details: CHO-dhfr(minus) cells expressing human GPBAR1, 30 min at 30° C.
Protocol: The final clone was verified by DNA sequence analysis. The plasmid was transfected into CHO cells deficient in dihydrofolate reductase activity (CHO-dhfr-) using Lipofectamine plus (Invitrogen). Clones were isolated in limited dilution conditions and identified by activities in the cAMP assay using lithocholic acid as agonist.
EC50 values were determined using Activity Base analysis (ID Business Solution, Limited). […] Specificity for GPBAR1 was tested in non-transfected CHO cells in the same assay as above.

human GPBAR1 receptor, sequence (Q8TDU6 whole entry): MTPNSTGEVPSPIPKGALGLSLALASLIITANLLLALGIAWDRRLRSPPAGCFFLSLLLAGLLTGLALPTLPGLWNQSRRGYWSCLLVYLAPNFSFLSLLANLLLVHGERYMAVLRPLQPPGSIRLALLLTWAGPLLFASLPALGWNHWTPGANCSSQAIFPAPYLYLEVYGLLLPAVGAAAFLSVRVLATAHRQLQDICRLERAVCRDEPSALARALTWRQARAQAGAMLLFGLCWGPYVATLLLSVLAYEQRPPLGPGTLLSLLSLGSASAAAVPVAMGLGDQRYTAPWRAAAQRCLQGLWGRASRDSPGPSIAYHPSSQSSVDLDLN

SMILES | EC50 [nM]
Cc1ccccc1-c1ccncc1N(C)C(=O)c1cc(C(F)(F)F)cc(C(F)(F)F)c1 [Example 1, N-Methyl-N-(4-o-tolyl-pyridin-3-yl)-3,5-bis-trifluoromethyl-benzamide] | 22
Cc1ccccc1-c1ccncc1N(C)C(=O)c1cccc(C(F)(F)F)c1 [Example 2, N-Methyl-N-(4-o-tolyl-pyridin-3-yl)-3-trifluoromethyl-benzamide] | 727
Cc1ccccc1-c1ccncc1N(C)C(=O)c1cccc(Cl)c1 [Example 3, N-Methyl-N-(4-o-tolyl-pyridin-3-yl)-3-chloro-benzamide] | 902
Cc1ccccc1-c1ccncc1N(C)C(=O)c1cc(C(F)(F)F)ccc1F [Example 4, 2-Fluoro-N-methyl-N-(4-o-tolyl-pyridin-3-yl)-5-trifluoromethyl-benzamide] | 247
Cc1ccccc1-c1ccncc1N(C)C(=O)c1ccc(F)c(C(F)(F)F)c1 [Example 5, 4-Fluoro-N-methyl-N-(4-o-tolyl-pyridin-3-yl)-5-trifluoromethyl-benzamide] | 112
Cc1ccccc1-c1ccncc1N(C)C(=O)c1cc(F)cc(F)c1 [Example 9, 3,5-Difluoro-N-methyl-N-(4-o-tolyl-pyridin-3-yl)-benzamide] | 1230
Cc1ccccc1-c1ccncc1N(C)C(=O)c1ccc(Cl)c(Cl)c1 [Example 10, 3,4-Dichloro-N-methyl-N-(4-o-tolyl-pyridin-3-yl)-benzamide] | 238
Cc1ccccc1-c1ccncc1N(C)C(=O)c1ccc(F)c(Cl)c1 [Example 11, 3-Chloro-4-fluoro-N-methyl-N-(4-o-tolyl-pyridin-3-yl)-benzamide] | 406
Cc1ccccc1-c1cc(Cl)ncc1N(C)C(=O)c1cc(C(F)(F)F)cc(C(F)(F)F)c1 [Example 12, N-(6-Chloro-4-o-tolyl-pyridin-3-yl)-N-methyl-3,5-bis-trifluoromethyl-benzamide] | 349
Cc1ccccc1-c1cc(Cl)ncc1N(C)C(=O)c1cc(Cl)cc(Cl)c1 [Example 13, 3,5-Dichloro-N-(6-chloro-4-o-tolyl-pyridin-3-yl)-N-methyl-benzamide] | 580
COc1cc(-c2ccccc2C)c(N(C)C(=O)c2cc(C(F)(F)F)cc(C(F)(F)F)c2)cn1 [Example 14, N-(6-Methoxy-4-o-tolyl-pyridin-3-yl)-N-methyl-3,5-bis-trifluoromethyl-benzamide] | 395
CNc1cc(-c2ccccc2C)c(N(C)C(=O)c2cc(C(F)(F)F)cc(C(F)(F)F)c2)cn1 [Example 15, N-Methyl-N-(6-methylamino-4-o-tolyl-pyridin-3-yl)-3,5-bis-trifluoromethyl-benzamide] | 323
Cc1ccccc1-c1cc(N)ncc1N(C)C(=O)c1cc(C(F)(F)F)cc(C(F)(F)F)c1 [Example 16] | 184
Cc1ccccc1-c1cc(N2CCN(S(C)(=O)=O)CC2)ncc1N(C)C(=O)c1cc(C(F)(F)F)cc(C(F)(F)F)c1 [Example 17, N-[6-(4-Methanesulfonyl-piperazin-1-yl)-4-o-tolyl-pyridin-3-yl]-N-methyl-3,5-bis-trifluoromethyl-benzamide] | 336
COCCN(C)c1cc(-c2ccccc2C)c(N(C)C(=O)c2cc(C(F)(F)F)cc(C(F)(F)F)c2)cn1 [Example 18, N-{6-[(2-Methoxy-ethyl)-methyl-amino]-4-o-tolyl-pyridin-3-yl}-N-methyl-3,5-bis-trifluoro methyl-benzamide] | 850
Cc1ccccc1-c1cc(C#N)ncc1N(C)C(=O)c1cc(C(F)(F)F)cc(C(F)(F)F)c1 [Example 19, N-(6-Cyano-4-o-tolyl-pyridin-3-yl)-N-methyl-3,5-bis-trifluoromethyl-benzamide] | 340
CC1CCCCN1c1ccncc1N(C)C(=O)c1cc(C(F)(F)F)cc(C(F)(F)F)c1 (stereo not shown) [Example 20, N-Methyl-N-(2-methyl-3,4,5,6-tetrahydro-2H-[1,4′]bipyridinyl-3′-yl)-3,5-bis-trifluoromethyl-benzamide] | 143
CC1CCCCN1c1ccncc1N(C)C(=O)c1cc(Cl)cc(Cl)c1 (stereo not shown) [Example 21, 3,5-Dichloro-N-methyl-N-(2-methyl-3,4,5,6-tetrahydro-2H-[1,4′]bipyridinyl-3′-yl)-benzamide hydrochloride salt] | 388
COc1cc(F)ccc1-c1ccncc1N(Cc1ncco1)C(=O)c1cc(C(F)(F)F)cc(S(C)(=O)=O)c1 [Example 22, N-[4-(4-Fluoro-2-methoxy-phenyl)-pyridin-3-yl]-3-methanesulfonyl-N-oxazol-2-ylmethyl-5-trifluoromethyl-benzamide] | 35
Cc1cc(F)ccc1-c1ccncc1N(C)C(=O)c1cc(C(F)(F)F)cc(C(F)(F)F)c1 [Example 23, N-[4-(4-Fluoro-2-methyl-phenyl)-pyridin-3-yl]-N-methyl-3,5-bis-trifluoromethyl-benzamide] | 38
Cc1cc(F)ccc1-c1ccncc1N(C)C(=O)c1cc(Cl)cc(Cl)c1 [Example 24, 3,5-Dichloro-N-[4-(4-fluoro-2-methyl-phenyl)-pyridin-3-yl]-N-methyl-benzamide] | 146
CN(C(=O)c1cc(C(F)(F)F)cc(C(F)(F)F)c1)c1cnccc1-c1ccccc1F [Example 25, N-[4-(2-Fluoro-phenyl)-pyridin-3-yl]-N-methyl-3,5-bis-trifluoromethyl-benzamide] | 14
Cc1ccc(-c2ccncc2N(C)C(=O)c2cc(C(F)(F)F)cc(C(F)(F)F)c2)c(C)c1 [Example 26, N-[4-(2,4-Dimethyl-phenyl)-pyridin-3-yl]-N-methyl-3,5-bis-trifluoromethyl-benzamide] | 686
COc1ccc(-c2ccncc2N(C)C(=O)c2cc(C(F)(F)F)cc(C(F)(F)F)c2)c(C)c1 [Example 27, N-[4-(4-Methoxy-2-methyl-phenyl)-pyridin-3-yl]-N-methyl-3,5-bis-trifluoromethyl-benzamide] | 1050
CN(C(=O)c1cc(C(F)(F)F)cc(C(F)(F)F)c1)c1cnccc1-c1ccccc1C(F)(F)F [Example 28, N-Methyl-3,5-bis-trifluoromethyl-N-[4-(2-trifluoromethyl-phenyl)-pyridin-3-yl]-benzamide] | 863

Continued, values first:

EC50 [nM] | SMILES
335 | COc1cc(F)ccc1-c1ccncc1N(CC1CCCO1)C(=O)c1cc(C(F)(F)F)cc(S(C)(=O)=O)c1 (single isomer, unassigned; (+)) [Example 232, (+)-N-[4-(4-Fluoro-2-methoxy-phenyl)-pyridin-3-yl]-3-methanesulfonyl-N-[1-(tetrahydro-furan-2-yl)methyl]-5-trifluoromethyl-benzamide]
2840 | COc1cc(F)ccc1-c1ccncc1N(CC1CCCCO1)C(=O)c1cc(C(F)(F)F)cc(S(C)(=O)=O)c1 (single isomer, unassigned; (+)) [Example 291, (+)-N-[4-(4-Fluoro-2-methoxy-phenyl)-pyridin-3-yl]-3-methanesulfonyl-N-[1-(tetrahydro-pyran-2-yl)methyl]-5-trifluoromethyl-benzamide]
54 | COc1cc(F)ccc1-c1ccncc1N(CC1CCCO1)C(=O)c1cc(C(F)(F)F)cc(S(C)(=O)=O)c1 (single isomer, unassigned; (-)) [Example 233, (−)-N-[4-(4-Fluoro-2-methoxy-phenyl)-pyridin-3-yl]-3-methanesulfonyl-N-[1-(tetrahydro-furan-2-yl)methyl]-5-trifluoromethyl-benzamide]
1740 | COc1cc(F)ccc1-c1ccncc1N(CC1CCCCO1)C(=O)c1cc(C(F)(F)F)cc(S(C)(=O)=O)c1 (single isomer, unassigned; (-)) [Example 290, (−)-N-[4-(4-Fluoro-2-methoxy-phenyl)-pyridin-3-yl]-3-methanesulfonyl-N-[1-(tetrahydro-pyran-2-yl)methyl]-5-trifluoromethyl-benzamide]
11 | COc1ccccc1-c1ccncc1N(C)C(=O)c1cc(C(F)(F)F)cc(C(F)(F)F)c1 [Example 29, N-[4-(2-Methoxy-phenyl)-pyridin-3-yl]-N-methyl-3,5-bis-trifluoromethyl-benzamide]
1620 | Cc1cc(Cl)ccc1-c1ccncc1N(C)C(=O)c1cc(C(F)(F)F)cc(C(F)(F)F)c1 [Example 30, N-[4-(4-Chloro-2-methyl-phenyl)-pyridin-3-yl]-N-methyl-3,5-bis-trifluoromethyl-benzamide]
29 | CN(C(=O)c1cc(C(F)(F)F)cc(C(F)(F)F)c1)c1cnccc1-c1ccccc1OC(F)(F)F [Example 31, N-Methyl-N-[4-(2-trifluoromethoxy-phenyl)-pyridin-3-yl]-3,5-bis-trifluoromethyl-benzamide]
9 | COc1ncccc1-c1ccncc1N(C)C(=O)c1cc(C(F)(F)F)cc(C(F)(F)F)c1 [Example 32, N-(2-Methoxy-[3,4′]bipyridinyl-3′-yl)-N-methyl-3,5-bis-trifluoromethyl-benzamide]
349 | Cc1ncccc1-c1ccncc1N(C)C(=O)c1cc(C(F)(F)F)cc(C(F)(F)F)c1 [Example 33, N-Methyl-N-(2-methyl-[3,4′]bipyridinyl-3′-yl)-3,5-bis-trifluoromethyl-benzamide]
502 | Cc1cnccc1-c1ccncc1N(C)C(=O)c1cc(C(F)(F)F)cc(C(F)(F)F)c1 [Example 34, N-Methyl-N-(3′-methyl-[4,4′]bipyridinyl-3-yl)-3,5-bis-trifluoromethyl-benzamide]
163 | CC(C)Oc1ccccc1-c1ccncc1N(C)C(=O)c1cc(C(F)(F)F)cc(C(F)(F)F)c1 [Example 35, N-[4-(2-Isopropoxy-phenyl)-pyridin-3-yl]-N-methyl-3,5-bis-trifluoromethyl-benzamide]
362 | CN(C(=O)c1cc(C(F)(F)F)cc(C(F)(F)F)c1)c1cnccc1-c1ccccc1C#N [Example 36, N-[4-(2-Cyano-phenyl)-pyridin-3-yl]-N-methyl-3,5-bis-trifluoromethyl-benzamide]
